Experimental data taken from patent US20230150951A1, “2,5- OR 2,6-DISUBSTITUTED HYDROQUINONE DERIVATIVES WITH AT LEAST ONE CARBOXY, SULFO OR AMIDO GROUP USEFUL AS MEDICAMENTS” (OM PHARMA SA, priority 2020, published 2023).
Where two headings read alike, the source gives them in different places.

Columns and labels:
Format in all cases: cell-based
[1] = tested on: IL-21; experiment: Cytokine release after LPS induction on human whole blood: IL-21
Description: (§1) Aim of this in vitro method is to assess compounds effects on release of a panel of cytokines from whole blood following lipopolysaccharide (LPS) induced inflammatory reaction. Whole blood was incubated with compounds for 1 h prior to LPS induction. Cytokine levels in blood were measured using a multiplex FACS-based panel.
(§2) IC50 values determined for the tested compounds expressed in microM [μM] and the values for the inhibition of cytokines were listed for each compound.
(§3) Effect on cytokines release after LPS induction was performed on the compounds dissolved in DMSO or H2O to reach 10-fold concentrated stock solutions and dissolved in culture media.
(§4) Test system: Whole blood was removed from a single donor (into lithium heparin coated tubes; BD Vacutainer; 367886) and diluted 1:5 with RPMI 1640 (Thermo Fisher, 61870036). Within 30 minutes of sampling, blood was incubated with compounds for 1 h prior to LPS stimulation (O111:B4—Sigma L4391; 10 ng/ml final concentration). Stimulation continued under standard cell culture conditions (37° C. with 5% CO2) overnight (18 h), after which plates were centrifuged and supernatant removed and frozen at −80° C. until used for analyses.
(§5) Dilution of test compounds: 10×concentrated solutions (concerning to the final assay concentrations) of each test compound were prepared with the appropriate solvent (in DMSO or in water). These 10× compound solutions (10 μl) were then added to 90 μl pre-diluted whole blood (whole blood: RPMI1640, 1:5) resulting in the final assay concentration.
(§6) Test method: Diluted whole blood (80 μl) was pre-incubated with compounds (10 μl) to give final assay concentrations of 100, 30, 10, 3, 1, 0.3 and 0.1×10^−6M. Blood was incubated at 37° C. with 5% CO2 for 1 h. LPS was diluted in cell culture media to a concentration of […]; 10 μl was added to the whole blood to give a final concentration of 10 ng/ml. Plates were incubated at 37° C. for 18 h. Plates were centrifuged at 3,000 RPM for 5 minutes at 4° C. and supernatant removed and frozen at −80° C. until FACS analysis was carried out.
(§7) Cytokine release was measured using a custom multiplex system (ELISA Genie) according to manufacturers instructions. Prepared samples were run on an Attune NxT flow cytometer (Thermo Fisher).
(§8) Quantification of cytokine release inhibition: known concentration standards were run as part of the cytokine panel to allow quantification of each cytokine concentration in each sample. This was carried out using FCAP Array v3.0 software.
(§9) Results: The dose response relationship on cytokine release following LPS induction of inflammatory response in whole blood was assessed for all compounds. IC50 values were determined for each compound for a panel of cytokines (GM-CSF, IFN-gamma, IL-1beta, IL-2, IL-4, IL-5, IL-6, IL-8, IL-9, IL-10, IL-12p40, IL-13, IL-17A, IL-17F, IL-18, IL-21, IL-22, IL-33, TGF-beta, TNF-alpha, TNF-beta).

[2] = tested on: IL-17F; experiment: Cytokine release after LPS induction on human whole blood: IL-17F
Description: as §1, §2, §3, §4, §5, §6, §7, §8, §9

[3] = tested on: TNF-beta; experiment: Cytokine release after LPS induction on human whole blood: TNFβ
Description: as §1, §2, §3, §4, §5, §6, §7, §8, §9

[4] = tested on: TNF-alpha; experiment: Cytokine release after LPS induction on human whole blood: TNFα
Description: as §1, §2, §3, §4, §5, §6, §7, §8, §9

[5] = tested on: IL-6; experiment: Cytokine release after LPS induction on human whole blood: IL-6
Description: as §1, §2, §3, §4, §5, §6, §7, §8, §9

[6] = tested on: IL-10; experiment: Cytokine release after LPS induction on human whole blood: IL-10
Description: as §1, §2, §3, §4, §5, §6, §7, §8, §9

[7] = tested on: IL-13; experiment: Cytokine release after LPS induction on human whole blood: IL-13
Description: as §1, §2, §3, §4, §5, §6, §7, §8, §9

[8] = tested on: IL-12p70; experiment: Cytokine release after LPS induction on human whole blood: IL-12p70
[9] = tested on: IL-33; experiment: Cytokine release after LPS induction on human whole blood: IL-33
Description: as §1, §2, §3, §4, §5, §6, §7, §8, §9

Structure (SMILES): O=C(O)c1cc(NC(=O)c2cc(O)c(C(=O)Nc3ccc(O)c(C(=O)O)c3)cc2O)ccc1O [Ic-007a, 5-(4-(3-carboxy-4-hydroxyphenylaminocarbonyl)-2,5-dihydroxybenzamido)-2-hydroxy benzoic acid]
- IC50 ([1]; Homo sapiens, LPS 10 ng/ml, 18 h, read-out: Whole Blood: IL-21 IC50): 1.9 µM
- IC50 ([1]; human whole blood, inhibition of LPS induced inflammation, read-out: IC50 IL-21): 1.9 µM
- IC50 ([2]; Homo sapiens, LPS 10 ng/ml, 18 h, read-out: Whole Blood: IL-17F IC50): 22.9 µM
- IC50 ([2]; human whole blood, inhibition of LPS induced inflammation, read-out: IC50 IL-17F): 22.9 µM
- IC50 ([3]; Homo sapiens, LPS 10 ng/ml, 18 h, read-out: Whole Blood: TNF β IC50): 6.52 µM
- IC50 ([3]; human whole blood, inhibition of LPS induced inflammation, read-out: IC50 β): 6.52 µM
- IC50 ([4]; Homo sapiens, LPS 10 ng/ml, 18 h, read-out: Whole Blood: TNF α IC50): 0.27 µM
- IC50 ([4]; human whole blood, inhibition of LPS induced inflammation, read-out: IC50 TNFa): 0.27 µM
- IC50 ([5]; Homo sapiens, LPS 10 ng/ml, 18 h, read-out: Whole Blood: IL-6 IC50): 0.09 µM
- IC50 ([5]; human whole blood, inhibition of LPS induced inflammation, read-out: IC50 IL-6): 0.09 µM
- IC50 ([6]; Homo sapiens, LPS 10 ng/ml, 18 h, read-out: Whole Blood: IL-10 IC50): 12.5 µM
- IC50 ([6]; human whole blood, inhibition of LPS induced inflammation, read-out: IC50 IL-10): 12.5 µM
- IC50 ([7]; Homo sapiens, LPS 10 ng/ml, 18 h, read-out: Whole Blood: IL-13 IC50): 30.1 µM
- IC50 ([7]; human whole blood, inhibition of LPS induced inflammation, read-out: IC50 IL-13): 30.1 µM
- IC50 ([8]; Homo sapiens, LPS 10 ng/ml, 18 h, read-out: Whole Blood: IL-12p70 IC50): 0.49 µM
- IC50 ([8]; human whole blood, inhibition of LPS induced inflammation, read-out: IC50 IL-12p70): 0.49 µM
- IC50 ([9]; Homo sapiens, LPS 10 ng/ml, 18 h, read-out: Whole Blood: IL-33 IC50): 18.4 µM
- IC50 ([9]; human whole blood, inhibition of LPS induced inflammation, read-out: IC50 IL-33): 18.4 µM
